Data from patent publication US11707442B2, “Antibacterial and antifungal compounds” (The General Hospital Corporation, priority 2015, dated 2023).
Values after ≈ are worked out from the molar mass of the structure shown. Like-named read-outs stand apart in the source and are kept apart here.

Tests used:
[1] = tested on: S. aureus; experiment: Minimal inhibitory concentration (MIC), broth microdilution; format: cell-based, Staphylococcus aureus
Outline: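 MIC values against methicillin-resistant Staphylococcus aureus were determined by standard broth microdilution following Clinical and Laboratory Standards Institute guidance (CLSI document M07-A8). Each well held 100 μl of test compound plus bacterial cells in MH broth, with the starting OD600 set to 0.03. Plates were incubated 18 hrs at 35° C. and absorbance was then read at 595 nm.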

[2] = tested on: A. baumannii; experiment: MIC, broth microdilution; format: cell-based, Acinetobacter baumannii; conditions: Acinetobacter baumannii, ATCC17978; A. baumannii ATCC 17978; read-out: Minimum inhibitory concentration
Source text: (§1) Bacterial strains and growth conditions and persister isolation: methicillin-resistant S. aureus (MRSA) strain MW2 BAA-1707, vancomycin-resistant S. aureus strain VRS 1, 11 clinical S. aureus isolates, 8 clinical Enterococcus faecium isolates, Klebsiella pneumoniae WGLW2 (BEI Resources, Manassas, Va., USA), Acinetobacter baumannii ATCC 17978, Pseudomonas aeruginosa PA14, and Enterobacter aerogenes ATCC 13048 were used to test antimicrobial activity (See Table 1a). S. aureus and E. faecium strains were grown in tryptic soy broth (TSB) (BD, Franklin Lakes, N.J., USA) or brain-heart infusion (BHI) broth (BD, Franklin Lakes, N.J., USA), respectively at 37° C. at 225 rpm. K. pneumoniae, A. baumannii, P. aeruginosa, and E. aerogenes were grown in Luria Bertani (LB) broth (BD, Franklin Lakes, N.J., USA).
(§2) To test the bacterial MICs for compounds described herein, the total volume in each well was 100 μl of test compounds and bacterial cells in MH broth. […] The bacterial concentration was adjusted to an initial OD600 of 0.03. After incubation at 35° C. for 18 hrs, the absorbance was measured at 595 nm in accordance with CLSI document M07-A8. The MICs of antibiotics were determined by the standard microdilution method recommended by the Clinical and Laboratory Standards Institute.

[3] = tested on: P. aeruginosa; experiment: MIC, broth microdilution; format: cell-based, Pseudomonas aeruginosa; conditions: Pseudomonas aeruginosa; P. aeruginosa PA14; read-out: Minimum inhibitory concentration
Source text: as §1, §2

[4] = tested on: C. elegans infected with MRSA strain MW2; format: in vivo; conditions: result in words
Experimental: The C. elegans-MRSA liquid infection assay has been described (Rajamuthiah et al. Plos One. 2014; 9(2):e89189). In brief, 4,500 glp-4 (bn2); sek-1(km4) L1 hatchlings were grown on SK-HB101 agar plates for 52 hours at the restrictive temperature of 25° C. until animals became sterile young adults and later harvested with M9 buffer. S. aureus MW2 was grown overnight at 37° C. in TSB, first under aerobic conditions and later shifted to anaerobic growth conditions at 37° C. The infection assay was performed in standard 384-well assay plates, in the presence of the compound being tested or 1% dimethyl sulfoxide (DMSO) as a control. Bacteria were added to the wells at a final OD600 of 0.06, followed by the use of a Complex Object Parametric Analyzer and Sorter (COPAS) large particle sorter (Union Biometrica, Holliston, Mass., USA) to transfer 15 adult worms to each well of an assay plate. After 5 days of incubation in a humidified chamber at 25° C., the bacteria and other debris were washed from the wells with a microplate washer and the worms were stained with the vital dye Sytox Orange (Life Technologies). After overnight incubation at 25° C. in a humidified chamber, the plates were imaged using an Image Xpress Micro automated microscope (Molecular Devices, Sunnyvale, Calif., USA), capturing both transmitted light and TRITC (535 nm excitation, 610 nm emission) fluorescent images with a 2× objective. The images from the infection assay were processed using the open source image analysis software CellProfiler and analysis modules as described previously. The ratio of Sytox worm area to bright field worm area, and the resultant percentage survival data, is calculated by the software for each well of the assay plates. The assay was performed in triplicate comparing the survival of worms at various concentrations of drugs.
Killing assays were carried out as described in Methods using S. aureus MRSA MW2 and 10 μg/ml retinoids, 10 μg/ml vancomycin (positive control), or 1% DMSO (negative control) at 25° C. for 5 days. Data are representative of three independent experiments. (B) Chemical structures of synthetic retinoids. (C) Growth of MRSA strain MW2 exposed to the indicated concentrations of compounds was quantified by measuring OD600 after 18 h in tryptic soy broth (TSB). (D) C. elegans infected with MRSA strain MW2 was treated with indicated concentrations of compounds. Percent survival of C. elegans was normalized to C. elegans treated with DMSO. (E-F) MRSA persisters prepared as described in Methods were treated with the indicated concentrations of each retinoid. Viability was measured by serial dilution and plating on TSA plates. The data points on the x-axis are below the level of detection (2×10^2 CFU/ml). (E,F) Results are shown as means±s.d.; n=3.

[5] = tested on: Salmonella typhimurium strains TA 1535 and TA 1538
Experimental: The Ames test was conducted using histidine auxotroph Salmonella typhimurium strains TA 1535 and TA 1538. To test mutagenic potential of the synthetic retinoids themselves and their metabolic products, the assay was conducted both with and without rat liver S9 fraction (Moltox, Boone, N.C., USA). Briefly, 100 μl of bacterial overnight cultures was added into 500 μl of phosphate buffer containing a range of amounts of the retinoids dissolved in 10 μl DMSO and with or without 4% S9. After incubation at 37° C. for 1 h, the samples were added into 2 ml of soft agar including 0.5 mM of histidine/biotin, mixed, and poured onto minimal glucose agar plates. The plates were incubated at 37° C. for 48 h, and the revertant colonies were counted. 10 μl DMSO was used as a negative control. […] 5 μg/plate 2-aminoanthracene was used as a positive control for both strains in the metabolic activation system. The test was performed in triplicate.

SMILES: O=C(O)/C=C/c1ccc(-c2ccc(O)c(C34CC5CC(CC(C5)C3)C4)c2)cc1 [Adarotene, (2E)-3-(4′-Hydroxy-3′-tricyclo[3.3.1.13,7]dec-1-yl[1,1′-biphenyl]-4-yl)-2-propenoic acid]
- MIC ([1]; MRSA MW2, text b656, read-out: MIC): 2 µg/mL (≈ 5.34 µM)
- MIC ([1]; Staphylococcus aureus, MRSA, 28 clinical MRSA isolates, 1 strain, read-out: MIC): 4 µg/mL (≈ 10.7 µM)
- MIC ([1]; Staphylococcus aureus, S. aureus BF1, read-out: Minimum inhibitory concentration): 4 µg/mL (≈ 10.7 µM)
- MIC ([1]; Staphylococcus aureus, S. aureus BF2, read-out: Minimum inhibitory concentration): 2 µg/mL (≈ 5.34 µM)
- MIC ([1]; Staphylococcus aureus, S. aureus BF3, read-out: Minimum inhibitory concentration): 2 µg/mL (≈ 5.34 µM)
- MIC ([1]; Staphylococcus aureus, S. aureus BF4, read-out: Minimum inhibitory concentration): 2 µg/mL (≈ 5.34 µM)
- MIC ([1]; Staphylococcus aureus, S. aureus BF5, read-out: Minimum inhibitory concentration): 2 µg/mL (≈ 5.34 µM)
- MIC ([1]; Staphylococcus aureus, S. aureus BF6, read-out: Minimum inhibitory concentration): 2 µg/mL (≈ 5.34 µM)
- MIC ([1]; Staphylococcus aureus, S. aureus BF7, read-out: Minimum inhibitory concentration): 2 µg/mL (≈ 5.34 µM)
- MIC ([1]; Staphylococcus aureus, S. aureus BF8, read-out: Minimum inhibitory concentration): 2 µg/mL (≈ 5.34 µM)
- MIC ([1]; Staphylococcus aureus, S. aureus BF9, read-out: Minimum inhibitory concentration): 2 µg/mL (≈ 5.34 µM)
- MIC ([1]; Staphylococcus aureus, S. aureus BF10, read-out: Minimum inhibitory concentration): 2 µg/mL (≈ 5.34 µM)
- MIC ([1]; Staphylococcus aureus, S. aureus BF11, read-out: Minimum inhibitory concentration): 2 µg/mL (≈ 5.34 µM)
- MIC ([1]; Staphylococcus aureus, S. aureus JE2 (wild-type), read-out: MIC): 2.5 µg/mL (≈ 6.68 µM)
- MIC ([1]; Staphylococcus aureus, S. aureus MW2, read-out: Minimum inhibitory concentration): 2 µg/mL (≈ 5.34 µM)
- MIC ([1]; Staphylococcus aureus, S. aureus MW2 mutant SP1-8 (graS)): 3 µg/mL (≈ 8.01 µM)
- MIC ([1]; Staphylococcus aureus, S. aureus MW2 mutant SP1-48 (graS, manA)): 4 µg/mL (≈ 10.7 µM)
- MIC ([1]; Staphylococcus aureus, S. aureus MW2 mutant SP1-74 (graS, manA, MW2474)): 4 µg/mL (≈ 10.7 µM)
- MIC ([1]; Staphylococcus aureus, S. aureus MW2 mutant SP1-100 (graS, manA, MW2474)): 4 µg/mL (≈ 10.7 µM)
- MIC ([1]; Staphylococcus aureus, S. aureus MW2 mutant SP2-13 (yjbH)): 3 µg/mL (≈ 8.01 µM)
- MIC ([1]; Staphylococcus aureus, S. aureus MW2 mutant SP2-52 (yjbH, dltB)): 3 µg/mL (≈ 8.01 µM)
- MIC ([1]; Staphylococcus aureus, S. aureus MW2 mutant SP2-59 (yjbH, dltB, manA)): 4 µg/mL (≈ 10.7 µM)
- MIC ([1]; Staphylococcus aureus, S. aureus MW2 mutant SP2-65 (yjbH, dltB, manA, MW1685)): 4 µg/mL (≈ 10.7 µM)
- MIC ([1]; Staphylococcus aureus, S. aureus MW2 mutant SP2-100 (yjbH dltB, manA, MW1685)): 4 µg/mL (≈ 10.7 µM)
- MIC ([1]; Staphylococcus aureus, S. aureus MW2 serial passage culture SP1-1 (no mutated gene)): 2 µg/mL (≈ 5.34 µM)
- MIC ([1]; Staphylococcus aureus, S. aureus MW2 serial passage culture SP2-1 (no mutated gene)): 2 µg/mL (≈ 5.34 µM)
- MIC ([1]; Staphylococcus aureus, S. aureus NE896 (JE2 yjbH::ϕNΣ)): 4 µg/mL (≈ 10.7 µM)
- MIC ([1]; Staphylococcus aureus, S. aureus NE1645 (JE2 manA::ϕNΣ)): 4 µg/mL (≈ 10.7 µM)
- MIC ([1]; Staphylococcus aureus, S. aureus NE1756 (JE2 graS::ϕNΣ)): 4 µg/mL (≈ 10.7 µM)
- MIC ([1]; Staphylococcus aureus, S. aureus VRS1, read-out: Minimum inhibitory concentration): 1 µg/mL (≈ 2.67 µM)
- MIC ([1]; Staphylococcus aureus, methicillin resistant S. aureus (MRSA) strain MW2, read-out: MIC): 2 µg/mL (≈ 5.34 µM)
- MIC [2]: > 64 µg/mL
- MIC [3]: > 64 µg/mL
- rescue of C. elegans from MRSA infection [4]: rescued
- genotoxic potential ([5]; Ames test, result in words): did not show significant genotoxic potential
- Number of revertants (T1535) ([5]; With S9, 5 μg/plate): 6 ± 2
- Number of revertants (T1538) ([5]; With S9, 5 μg/plate): 8 ± 4
- Number of revertants (T1535) ([5]; With S9, 25 μg/plate): 7 ± 3
- Number of revertants (T1538) ([5]; With S9, 25 μg/plate): 8 ± 1
- Number of revertants (T1535) ([5]; With S9, 100 μg/plate): 7 ± 1
- Number of revertants (T1538) ([5]; With S9, 100 μg/plate): 7 ± 3
- Number of revertants (T1535) ([5]; Without S9, 5 μg/plate): 6 ± 1
- Number of revertants (T1538) ([5]; Without S9, 5 μg/plate): 6 ± 1
- Number of revertants (T1535) ([5]; Without S9, 25 μg/plate): 7 ± 3
- Number of revertants (T1538) ([5]; Without S9, 25 μg/plate): 4 ± 3
- Number of revertants (T1535) ([5]; Without S9, 100 μg/plate): 6 ± 2
- Number of revertants (T1538) ([5]; Without S9, 100 μg/plate): 5 ± 2
